23 molecules from PubChem BioAssay AID328 (DTP/NCI, 2004) can be followed below.

SMILES strings stand for the structures. “And” between values parts separate entries of the source, which are not always exact repeats. Identical values can stand only once. Toxic doses and inconclusive results are not listed.

The subject of the assay is BDF1 mice, P388 leukemia ip, median survival T/C. Kind of assay: NCI In Vivo Anticancer Drug Screen. Data for tumor model P388 Leukemia (intraperitoneal) in B6D2F1 (BDF1) mice. Conditions: endpoint: median survival time, higher = longer survival. The gist of the method: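 Read-out is survival of treated animals expressed relative to the vehicle group, as a T/C ratio.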

[1] abbreviates: dose: 100.0 mg/kg/injection, schedule: Q01DX001 (ip), vehicle: saline sonified.
[2] abbreviates: dose: 200.0 mg/kg/injection, schedule: Q01DX001 (ip), vehicle: saline sonified.
Where [3] appears, read: dose: 100.0 mg/kg/injection, schedule: Q01DX009 (ip), vehicle: saline.
[4] abbreviates: dose: 100.0 mg/kg/injection, schedule: Q04DX003 (ip), vehicle: saline.
[5] abbreviates: dose: 200.0 mg/kg/injection, schedule: Q01DX009 (ip), vehicle: saline.
[6] abbreviates: dose: 200.0 mg/kg/injection, schedule: Q04DX003 (ip), vehicle: saline.
The mark [7] stands for this setting: dose: 400.0 mg/kg/injection, schedule: Q01DX009 (ip), vehicle: saline.
The mark [8] stands for this setting: dose: 400.0 mg/kg/injection, schedule: Q04DX003 (ip), vehicle: saline.
The mark [9] stands for this setting: dose: 100.0 mg/kg/injection, schedule: Q04DX003 (ip), vehicle: saline with Tween-80.
[10] abbreviates: dose: 50.0 mg/kg/injection, schedule: Q01DX009 (ip), vehicle: saline with Tween-80.
The mark [11] stands for this setting: dose: 100.0 mg/kg/injection, schedule: Q01DX009 (ip), vehicle: saline with Tween-80.
[12] abbreviates: dose: 200.0 mg/kg/injection, schedule: Q01DX009 (ip), vehicle: saline with Tween-80.
Where [13] appears, read: dose: 25.0 mg/kg/injection, schedule: Q01DX009 (ip), vehicle: saline with Tween-80.
Setting [14] is: dose: 100.0 mg/kg/injection, schedule: Q01DX001 (ip), vehicle: saline with Tween-80.
The mark [15] stands for this setting: dose: 200.0 mg/kg/injection, schedule: Q01DX001 (ip), vehicle: saline with Tween-80.
Setting [16] is: dose: 200.0 mg/kg/injection, schedule: Q04DX003 (ip), vehicle: saline with Tween-80.
Where [17] appears, read: dose: 25.0 mg/kg/injection, schedule: Q01DX009 (ip), vehicle: saline.
Setting [18] is: dose: 50.0 mg/kg/injection, schedule: Q01DX009 (ip), vehicle: saline.
Where [19] appears, read: dose: 400.0 mg/kg/injection, schedule: Q04DX003 (ip), vehicle: saline with Tween-80.
[20] abbreviates: dose: 50.0 mg/kg/injection, schedule: Q01DX005 (ip), vehicle: saline with Tween-80.

Consider `COc1ccc(Br)c(C=O)c1OS(=O)(=O)c1ccc(C)cc1`, for which the T/C was 100 % of control (dose: 25.0 mg/kg/injection, schedule: Q01DX009 (ip), vehicle: other); 110 % of control (dose: 50.0 mg/kg/injection, schedule: Q01DX009 (ip), vehicle: other); 94 % of control (dose: 100.0 mg/kg/injection, schedule: Q01DX009 (ip), vehicle: other); 99 % of control (dose: 200.0 mg/kg/injection, schedule: Q01DX009 (ip), vehicle: other); 95 % of control (dose: 400.0 mg/kg/injection, schedule: Q01DX009 (ip), vehicle: other).
Take `COC(=O)C1C2CCc3cc(OC)ccc3C2CCC1(C)C(=O)O` (stereo not drawn): the T/C was 100 % of control under setting [1]; 104 % of control under setting [2]; 100 % of control (dose: 400.0 mg/kg/injection, schedule: Q01DX001 (ip), vehicle: saline sonified).
As to `CC(C)(C)OC(=O)NO`, the T/C by setting is: under setting [3], 105 % of control; under setting [4], 91 % of control; under setting [5], 95 % of control; under setting [6], 95 % of control; under setting [7], 90 % of control; under setting [8], 95 % of control.
As to `COc1ccc(OC)c(/C=C/c2ccnc3ccccc23)c1`, the T/C is 95 % of control (dose: 50.0 mg/kg/injection, schedule: Q01DX010 (ip), vehicle: saline); 110 % of control (dose: 100.0 mg/kg/injection, schedule: Q01DX010 (ip), vehicle: saline); 150 % of control (dose: 200.0 mg/kg/injection, schedule: Q01DX010 (ip), vehicle: saline); 165 % of control (dose: 400.0 mg/kg/injection, schedule: Q01DX010 (ip), vehicle: saline).
For `Cc1ccccc1-c1nc2cc(Cl)ccc2c(=O)o1`, the T/C reads like this: (dose: 25.0 mg/kg/injection, schedule: Q04DX003 (ip), vehicle: saline with Tween-80) 104 % of control; (dose: 50.0 mg/kg/injection, schedule: Q04DX003 (ip), vehicle: saline with Tween-80) 100 % of control; under setting [9], 109 % of control.
In the case of `COc1cc2c(cc1OC)C(=O)Cc1ccc3c(c1CN(C)CC2)OCO3`, the T/C by setting is: (dose: 1.5 mg/kg/injection, schedule: Q01DX009 (ip), vehicle: saline sonified) 95 % of control; (dose: 3.0 mg/kg/injection, schedule: Q01DX009 (ip), vehicle: saline sonified) 100 % of control; (dose: 6.0 mg/kg/injection, schedule: Q01DX009 (ip), vehicle: saline sonified) 112 % of control.
Take `COc1ccc(NCCN(C)C)c2c(=O)c3ccccc3sc12`: the T/C under setting [10] was 97 % of control, the T/C under setting [11] is 101 % of control and the T/C under setting [12] is 108 % of control.
For the molecule `CC(=O)CC(OC(=O)c1cc([N+](=O)[O-])cc([N+](=O)[O-])c1)(C(F)(F)F)C(F)(F)F`, the T/C by setting is: (dose: 6.25 mg/kg/injection, schedule: Q01DX009 (ip), vehicle: saline with Tween-80) 100 % of control; (dose: 12.5 mg/kg/injection, schedule: Q01DX009 (ip), vehicle: saline with Tween-80) 118 % of control; under setting [13], 118 % of control.
With `CC1=Nc2ccccc2N=C(C)C1`, the T/C is, setting by setting: under setting [13], 100 % of control; (dose: 50.0 mg/kg/injection, schedule: Q01DX001 (ip), vehicle: saline with Tween-80) 100 % of control; under setting [10], 90 % of control; under setting [14], 104 % of control; under setting [11], 109 % of control; under setting [9], 100 % of control. Besides, the T/C by setting is: (dose: 150.0 mg/kg/injection, schedule: Q01DX009 (ip), vehicle: saline with Tween-80) 100 % of control; under setting [15], 100 % of control; under setting [16], 100 % of control.
Take `CN(C)CC#N`: the T/C is 108 % of control (dose: 10.0 mg/kg/injection, schedule: Q04DX003 (ip), vehicle: saline); 91 % of control (dose: 20.0 mg/kg/injection, schedule: Q04DX003 (ip), vehicle: saline); 95 % of control (dose: 40.0 mg/kg/injection, schedule: Q04DX003 (ip), vehicle: saline).
Consider `Cc1cccc(N)n1` (tested in a mixture with another compound), for which the T/C (dose: 12.5 mg/kg/injection, schedule: Q01DX009 (ip), vehicle: saline) was 105 % of control; the T/C under setting [17] was 94 % of control; the T/C under setting [18] was 89 % of control.
As for `CCOC(=O)C(C1=NC(C)(C)CC(C)O1)C1CCCCC1` (stereo not drawn), the T/C reads like this: (dose: 50.0 mg/kg/injection, schedule: Q01DX001 (ip), vehicle: saline sonified) 120 % of control; under setting [1], 110 % of control; under setting [2], 105 % of control.
As for `NC(=S)c1ccc(N)nc1`, the T/C is 103 % of control under setting [9], 110 % of control under setting [16] and 110 % of control under setting [19].
As to `O=C1NC(=O)C(c2ccc(O)cc2)N1` (stereo not drawn), the T/C was 100 % of control under setting [9], 109 % of control under setting [16] and 118 % of control under setting [19].
On to `CC(C)c1cc(C(C)C)nc(NNc2nc(C(C)C)cc(C(C)C)n2)n1`, for which the T/C was 90 % of control under setting [11]; 90 % of control under setting [12]; 100 % of control (dose: 400.0 mg/kg/injection, schedule: Q01DX009 (ip), vehicle: saline with Tween-80).
On to `COC(=O)C(NC=O)C(=O)OC`, for which the T/C reads like this: under setting [3], 100 % of control; under setting [4], 100 % of control; under setting [5], 114 % of control; under setting [6], 90 % of control; under setting [7], 100 % of control; under setting [8], 90 % of control.
As to `CN(Cc1ccco1)NC(=O)C(=O)NCc1ccco1`, the T/C by setting is: (dose: 12.5 mg/kg/injection, schedule: Q01DX005 (ip), vehicle: saline with Tween-80) 95 % of control; (dose: 25.0 mg/kg/injection, schedule: Q01DX005 (ip), vehicle: saline with Tween-80) 95 % of control; under setting [20], 88 % of control.
`Cc1ccc(NCC2(/N=C/c3ccccc3)OC(CO)C(O)C2O)cc1` (stereo not drawn): the T/C runs as follows: (dose: 100.0 mg/kg/injection, schedule: Q04DX003 (ip), vehicle: Klucel (hydroxypropylcellulose) (HPC)) 119 % of control; (dose: 200.0 mg/kg/injection, schedule: Q01DX009 (ip), vehicle: Klucel (hydroxypropylcellulose) (HPC)) 150 % of control; (dose: 200.0 mg/kg/injection, schedule: Q04DX003 (ip), vehicle: Klucel (hydroxypropylcellulose) (HPC)) 107 % of control; (dose: 400.0 mg/kg/injection, schedule: Q01DX009 (ip), vehicle: Klucel (hydroxypropylcellulose) (HPC)) 158 % of control; (dose: 400.0 mg/kg/injection, schedule: Q04DX003 (ip), vehicle: Klucel (hydroxypropylcellulose) (HPC)) 123 % of control.
For `CCNC1(c2ccc(Cl)cc2)CCCCC1=O` (stereo not drawn), the T/C is, setting by setting: under setting [17], 100 % of control; under setting [18], 95 % of control and 100 % of control; (dose: 50.0 mg/kg/injection, schedule: Q04DX003 (ip), vehicle: saline) 100 % of control; under setting [3], 86 % of control; under setting [4], 95 % of control.
Consider `Cc1ccccc1CC(N)C(=O)O` (stereo not drawn), for which the T/C was 92 % of control under setting [10], 92 % of control under setting [11] and 90 % of control under setting [12].
Regarding `CCCCCCCCCC(=O)NN1CCOCC1`, the T/C runs as follows: under setting [14], 104 % of control; under setting [15], 120 % of control; (dose: 400.0 mg/kg/injection, schedule: Q01DX001 (ip), vehicle: saline with Tween-80) 104 % of control.
Consider `CC(=O)Oc1cc(OCCCc2ccc(F)cc2)cc2c1-c1ccccc1CC2`, for which the T/C under setting [9] was 99 % of control, the T/C under setting [16] is 89 % of control and the T/C under setting [19] is 97 % of control.
As for `CC(C)(C)OC(=O)NC(CCCNC(=O)OCc1ccccc1)C(=O)NC(CCCNC(=O)OCc1ccccc1)C(=O)OCc1ccccc1` (stereo not drawn), the T/C runs as follows: under setting [20], 91 % of control; (dose: 100.0 mg/kg/injection, schedule: Q01DX005 (ip), vehicle: saline with Tween-80) 92 % of control; (dose: 200.0 mg/kg/injection, schedule: Q01DX005 (ip), vehicle: saline with Tween-80) 95 % of control.
